Experimental findings from patent publication US6288077A, “2,3-methano-amino acid compounds” (Adir et Compagnie, priority 1999, dated 2001) are described below.

The test system of test [1] is dog plasma. The test can be described thus: Anti-coagulant activity after administration per os to the dog, thrombin time (TT). The format is in vivo. Conditions: oral, 5 mg/kg. Here is the method: (§1) Anti-coagulant Activity After Administration Per os to the Dog
(§2) Male or female dogs weighing 11-28 kg are treated by the oral route with the products of the invention (5 or 10 mg/kg). The coagulation times (TT, ACT) are determined in dog plasma samples 10 min. before and 30 min., 1 hour, 2 hours, 4 hours and 6 hours after administration of the products. The measurements of the coagulation times are carried out as described in Example 81.
(§3) Under the conditions of our experiments, the TT is of the order of 19 seconds and the ACT of the order of 18 seconds.
(§4) The Table 4 summarizes the results obtained.

Test [2] has as its system human plasma. The test can be described thus: Activated cephalin time (ACT) in human plasma, anti-coagulant activity. The format is biochemical. As to conditions: human plasma deficient in platelets, 2 min incubation at 37° C., PTT Automate Cephalin. The protocol: (§5) Anti-coagulant Activity, Measurement of Thrombin Time and Activated […] Man In order to evaluate the anti-coagulant activity of the compounds of the invention, the thrombin time (TT) and the activated cephalin time (ACT) were determined in human plasma samples. An ST4 coagulometer (Diagnostica Stago, France) was used. A lyophilised plasma, deficient in platelets (Stago), is taken up in distilled water. The TT is obtained using the reagent Prest Thrombin and the ACT using the reagent PTT Automate […]. […] The activity of an antagonist is evaluated by its capacity to prolong the TT and the ACT relative to the control. The effect of the inhibitors is expressed by the concentration in μM that doubles the coagulation time (Ctt2).

In test [3] the test system is dog plasma. Nature of the test: Anti-coagulant activity after administration per os to the dog, activated cephalin time (ACT). Conditions: oral, 5 mg/kg. The format is in vivo. Here is the method:
as §1, §2, §3, §4

The target of the next test is T1, human thrombin (Homo sapiens, UniProt P00734).
T1 construct: purchased Sigma
Nature of the test: Inhibition of human thrombin (fibrin formation from purified human fibrinogen). It is filed as biochemical. As to conditions: human thrombin 0.7 nM, human fibrinogen 4 mM, pH 7.4, 20° C., 10 min preincubation. Here is the method: Inhibition of Thrombin and of Fibrinolysis Serine Proteases […] The fibrin formed by the thrombin or by the paranitroanilide released by the action of the serine protease is measured spectrophotometrically at 405 nm after from 15 to 30 minutes' reaction at 20° C.

Test [4] relates to human plasma. The test can be described thus: Thrombin time (TT) in human plasma, anti-coagulant activity. As to conditions: human plasma deficient in platelets, 2 min incubation at 37° C., Prest Thrombin. It is filed as biochemical. Here is the method: as §5

With `Cl.Cl.N=C(N)c1ccc(CNC(=O)[C@]23C[C@H]2CCCN3C(=O)[C@H](N)C(c2ccccc2)c2ccccc2)cc1` [Example 61, 1-[(2R)-3,3-Diphenylalanyl]-N-(4-amidinobenzyl)-(2S,3R)-2,3-methano-homoprolinamide dihydrochloride], in the test on dog plasma [1], the “TT increase (maximal; number of times by which the initial time is increased)” value was found to be 14.2 times. Also, the “ACT Ctt2 (concentration that doubles the coagulation time)” value with human plasma [2] was 0.47 µM. Also, the “ACT increase (maximal; number of times by which the initial time is increased)” value in the test with dog plasma [3] is 2.0 times. The same compound showed an IC50 on human thrombin of 1 nM. The “TT Ctt2 (concentration that doubles the coagulation time)” value in the test on human plasma [4] was 0.05 µM.
